The values below come from patent US20230086702A1, “SUBSTITUTED 2-AMINO-PYRAZOLYL-[1,2,4]TRIAZOLO[1,5A]PYRIDINE DERIVATIVES AND USE THEREOF” (The Johns Hopkins University, priority 2019, published 2023).

Structures are written as SMILES.

The target in one experiment is T1, DLK (Homo sapiens, UniProt Q12852).
T1 construct: 10 nM DLK, catalytic domain, Carna Biosiences; purchased Carna Biosciences ('Carna Biosiences' [sic])
T1 sequence (Q12852 125-366 limits assumed): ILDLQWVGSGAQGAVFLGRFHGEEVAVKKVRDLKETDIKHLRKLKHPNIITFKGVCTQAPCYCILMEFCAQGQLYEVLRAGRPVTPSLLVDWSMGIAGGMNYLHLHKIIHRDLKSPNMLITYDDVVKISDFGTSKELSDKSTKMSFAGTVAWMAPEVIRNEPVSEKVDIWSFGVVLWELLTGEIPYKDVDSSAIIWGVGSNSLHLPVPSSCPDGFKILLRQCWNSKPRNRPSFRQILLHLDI
Kind of experiment: DLK biochemical assay (TR-FRET, MKK7 phosphorylation). The settings on record: DLK catalytic domain, MKK7 substrate, 60 μM ATP. Summed up:
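Human DLK activity measured as phosphorylation of His-tagged MKK7 at T275/S277, detected by TR-FRET between Eu-anti-phospho-MKK7 donor (excitation 340 nm) and XL665-anti-His acceptor (665 nm). Signal taken as the XL665/Eu ratio. Detection buffer: 25 mM Tris/HCl pH 7.5, 100 mM EDTA, 100 mM NaCl, 200 mM KF, 0.01% Tween 20.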

A further experiment deals with T2, LZK (Homo sapiens, UniProt O43283).
T2 construct: 10 nM LZK, catalytic domain, Carna Biosiences in assay buffer; purchased Carna Biosciences ('Carna Biosiences' [sic])
T2 sequence (O43283 168-409 limits assumed): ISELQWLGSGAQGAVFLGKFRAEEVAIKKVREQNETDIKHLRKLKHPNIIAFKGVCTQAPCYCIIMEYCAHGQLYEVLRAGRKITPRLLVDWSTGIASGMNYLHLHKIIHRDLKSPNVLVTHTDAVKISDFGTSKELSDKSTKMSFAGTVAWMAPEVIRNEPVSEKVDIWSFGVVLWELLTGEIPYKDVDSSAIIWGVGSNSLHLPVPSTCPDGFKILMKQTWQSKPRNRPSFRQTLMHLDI
Kind of experiment: LZK biochemical assay (TR-FRET, MKK7 phosphorylation). The settings on record: LZK catalytic domain, MKK7 substrate, 15 μM ATP.

For `CC[C@H](C)NC(=O)c1cc(-c2cnn(C(c3ccc(OCC(F)(F)F)nc3)C(C)C)c2)cn2nc(N)nc12` (single isomer, unassigned) [Example I-90], the 50% inhibitory concentration (IC50) against DLK stood at 0.003 µM; at LZK, 0.034 µM.
The matching figures for `CCC(c1ccc(C(F)F)nc1)n1cc(-c2cc(C(=O)N[C@@H](C)CC)n3nc(N)nc3c2)cn1` (single isomer, unassigned) [Example I-93]: 0.0065 µM and 0.0063 µM.
On to `CC[C@H](C)NC(=O)c1cc(-c2cnn([C@@H](CC)c3ccc(C(F)F)nc3)c2)cc2nc(N)nn12` (single isomer, unassigned) [Example I-94], for which the IC50 against DLK amounted to 0.001 µM; against LZK, 0.0019 µM.
For `CC[C@H](C)NC(=O)c1cc(-c2cnn(C(c3ccc(C(F)F)nc3)C(C)C)c2)cc2nc(N)nn12` (single isomer, unassigned) [Example I-96], the IC50 was 0.014 µM against DLK and 0.017 µM on LZK.
Consider `CC[C@H](C)NC(=O)c1cc(-c2cnn([C@H](c3ccc(C(F)F)nc3)C(C)C)c2)cc2nc(N)nn12` (single isomer, unassigned) [Example I-97], for which the IC50 is 0.0009 µM at DLK and 0.0021 µM on LZK.
Turning to `CC[C@H](C)NC(=O)c1cc(-c2cnn(C(c3ccc(C(F)F)nc3)C3CC3)c2)cc2nc(N)nn12` (single isomer, unassigned) [Example I-99], the IC50 amounted to 0.031 µM at DLK and 0.014 µM on LZK.
As for `CC[C@H](C)NC(=O)c1cc(-c2cnn(C(c3ccc(C(F)F)nc3)C3CC3)c2)cc2nc(N)nn12` (single isomer, unassigned) [Example I-100], the IC50 at DLK was 0.0028 µM; at LZK it was 0.0043 µM.
`CC[C@H](c1ccc(C(F)(F)F)nc1)n1cc(-c2cc(C(=O)N[C@@H](C)CC)n3nc(N)nc3c2)cn1` (single isomer, unassigned) [Example I-102]: the IC50 was 0.007 µM at DLK and 0.011 µM against LZK.
For the compound `CC[C@H](C)NC(=O)c1cc(-c2cnn([C@@H](CC)c3ccc(C(F)(F)F)nc3)c2)cc2nc(N)nn12` (single isomer, unassigned) [Example I-103], the results for the IC50 at DLK and on LZK were 0.0008 µM and 0.0024 µM, respectively.
Take `CC[C@H](C)NC(=O)c1cc(-c2cnn(C(c3ccc(C(F)(F)F)nc3)C(C)C)c2)cc2nc(N)nn12` (single isomer, unassigned) [Example I-105]: the results for the IC50 against DLK and on LZK were 0.013 µM and 0.014 µM, respectively.
On to `CC[C@H](C)NC(=O)c1cc(-c2cnn(C(c3ccc(C(F)(F)F)nc3)C3CC3)c2)cc2nc(N)nn12` (single isomer, unassigned) [Example I-108], for which the IC50 turned out to be 0.028 µM on DLK and 0.017 µM against LZK.
Consider `CC[C@H](C)NC(=O)c1cc(-c2cnn([C@H](c3ccc(C(F)(F)F)nc3)C3CC3)c2)cc2nc(N)nn12` (single isomer, unassigned) [Example I-109], for which the IC50 against DLK was determined as 0.0018 µM; at LZK it was 0.0035 µM.
As for `CC[C@H](C)NC(=O)c1cc(-c2cnn(C(c3ccc(C(F)(F)F)nc3)C3CCOCC3)c2)cc2nc(N)nn12` (single isomer, unassigned) [Example I-111], the figures for the IC50 on DLK and on LZK were 0.0005 µM and 0.0014 µM, respectively.
As for `CC[C@H](C)NC(=O)c1cc(-c2cnn(C(c3ccc(C(F)(F)F)nc3)C3CCOCC3)c2)cc2nc(N)nn12` (single isomer, unassigned) [Example I-112], the IC50 against DLK was 0.008 µM; against LZK, 0.007 µM.
Turning to `CCC(c1ccc(OCC(F)(F)F)nc1)n1cc(-c2cc(C(=O)N[C@@H](C)CC)n3nc(N)nc3c2)cn1` (single isomer, unassigned) [Example I-114], the IC50 on DLK worked out at 0.049 µM; against LZK it was 0.13 µM.
Take `CCC(c1ccc(OCC(F)(F)F)nc1)n1cc(-c2cc(C(=O)N[C@@H](C)CC)n3nc(N)nc3c2)cn1` (single isomer, unassigned) [Example I-115]: the IC50 against DLK is 0.0042 µM; on LZK, 0.02 µM.
For the compound `CC[C@H](C)NC(=O)c1cc(-c2cnn(C(c3ccc(OCC(F)(F)F)nc3)C(C)C)c2)cc2nc(N)nn12` (single isomer, unassigned) [Example I-117], the IC50 was determined as 0.073 µM against DLK and 0.25 µM against LZK.
As for `CC[C@H](C)NC(=O)c1cc(-c2cnn(C(c3ccc(OCC(F)(F)F)nc3)C(C)C)c2)cc2nc(N)nn12` (single isomer, unassigned) [Example I-118], the IC50 at DLK was determined as 0.0086 µM; on LZK, 0.029 µM.
With `CC[C@H](C)NC(=O)c1cc(-c2cnn(C(c3ccc(OCC(F)(F)F)nc3)C3CC3)c2)cc2nc(N)nn12` (single isomer, unassigned) [Example I-120], the results for the IC50 against DLK and at LZK were 0.044 µM and 0.14 µM, respectively.
The matching figures for `CC[C@H](C)NC(=O)c1cc(-c2cnn(C(c3ccc(OCC(F)(F)F)nc3)C3CC3)c2)cc2nc(N)nn12` (single isomer, unassigned) [Example I-121]: 0.0019 µM and 0.03 µM.
Consider `CC[C@H](C)NC(=O)c1cc(-c2cnn(C(c3c(F)cncc3F)C(C)C)c2)cc2nc(N)nn12` (single isomer, unassigned) [Example I-124], for which the IC50 against DLK stood at 0.06 µM; against LZK it was 0.27 µM.
`CC[C@H](C)NC(=O)c1cc(-c2cnn(C(c3c(F)cncc3F)C(C)C)c2)cc2nc(N)nn12` (single isomer, unassigned) [Example I-125]: the IC50 at DLK was 0.0054 µM; on LZK it was 0.066 µM.
With `CC[C@H](C)NC(=O)c1cc(-c2cnn(C(c3ccnc(OC)c3)C(C)C)c2)cc2nc(N)nn12` (single isomer, unassigned) [Example I-127], the IC50 against DLK amounted to 0.017 µM; at LZK it was 0.052 µM.
Take `CC[C@H](C)NC(=O)c1cc(-c2cnn([C@H](c3ccnc(OC)c3)C(C)C)c2)cc2nc(N)nn12` (single isomer, unassigned) [Example I-128]: the IC50 at DLK was 0.0005 µM; against LZK, 0.0033 µM.
For `CCC(c1ccc(Cl)s1)n1cc(-c2cc(C(=O)N[C@@H](C)CC)c3nc(N)nn3c2)cn1` (single isomer, unassigned) [Example I-130], in that order: 0.053 µM and 0.1 µM.
As to `CCC(c1ccc(Cl)s1)n1cc(-c2cc(C(=O)N[C@@H](C)CC)c3nc(N)nn3c2)cn1` (single isomer, unassigned) [Example I-131], the IC50 against DLK was 0.0015 µM; against LZK it was 0.033 µM.
The matching figures for `CC[C@H](NC(=O)c1cc(-c2cnn(Cc3ccccc3)c2)cn2nc(N)nc12)C(F)(F)F` (single isomer, unassigned) [Example I-133]: 0.11 µM and 0.33 µM.
For `CC[C@@H](NC(=O)c1cc(-c2cnn(Cc3ccccc3)c2)cn2nc(N)nc12)C(F)(F)F` (single isomer, unassigned) [Example I-134], the figures for the IC50 at DLK and at LZK were 0.23 µM and 0.97 µM, respectively.
For `COC[C@H](C)NC(=O)c1cc(-c2cnn(Cc3ccc(F)cc3)c2)cn2nc(N)nc12` (single isomer, unassigned) [Example I-135, 2-Amino-6-{1-[(4-fluorophenyl)methyl]-1H-pyrazol-4-yl}-N-[(25)-1-methoxypropan-2-yl][1,2,4]triazolo[1,5-a]pyridine-8-carboxamide], in that order: 0.19 µM and 0.55 µM.
`CC(CF)NC(=O)c1cc(-c2cnn(C(c3ccccc3)C(C)C)c2)cn2nc(N)nc12` (single isomer, unassigned) [Example I-139, 2-Amino-N-(1-fluoropropan-2-yl)-6-{1-[2-methyl-1-phenylpropyl]-1H-pyrazol-4-yl}[1,2,4]triazolo[1,5-a]pyridine-8-carboxamide]: the values for the IC50 against DLK and against LZK were 0.0017 µM and 0.064 µM, respectively.
As to `CC(CF)NC(=O)c1cc(-c2cnn(C(c3ccccc3)C(C)C)c2)cn2nc(N)nc12` (single isomer, unassigned) [Example I-140, 2-Amino-N-(1-fluoropropan-2-yl)-6-[1-(2-methyl-1-phenylpropyl)-1H-pyrazol-4-yl][1,2,4]triazolo[1,5-a]pyridine-8-carboxamide], the IC50 on DLK is 0.0005 µM; on LZK, 0.032 µM.
Regarding `CC(CF)NC(=O)c1cc(-c2cnn(C(c3ccccc3)C(C)C)c2)cn2nc(N)nc12` (single isomer, unassigned) [Example I-141, 2-Amino-N-(1-fluoropropan-2-yl)-6-[1-(2-methyl-1-phenylpropyl)-1H-pyrazol-4-yl][1,2,4]triazolo[1,5-a]pyridine-8-carboxamide], the IC50 at DLK was determined as 0.026 µM; on LZK, 0.355 µM.
For the compound `CC(CF)NC(=O)c1cc(-c2cnn(C(c3ccccc3)C(C)C)c2)cn2nc(N)nc12` (single isomer, unassigned) [Example I-142, 2-Amino-N-[1-fluoropropan-2-yl]-6-{1-[2-methyl-1-phenylpropyl]-1H-pyrazol-4-yl}[1,2,4]triazolo[1,5-a]pyridine-8-carboxamide], the IC50 against DLK stood at 0.0042 µM; at LZK, 0.24 µM.
